Key:
Assay in all cases: relative viability (nuclei count vs DMSO), 5 days (fraction); higher = more cells survive
Shikonin + Crizotinib = compound: CC(C)=CC[C@@H](O)C1=CC(=O)c2c(O)ccc(O)c2C1=O [Shikonin] + C[C@@H](Oc1cc(-c2cnn(C3CCNCC3)c2)cnc1N)c1c(Cl)ccc(F)c1Cl [Crizotinib] (partner 1 µM)
Outline: (§1)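 One day after seeding in 1536-well plates, lung cancer cell lines were dosed by pin tool. Dosing was either single-drug or a fixed anchor-drug dose plus five library-drug doses (not always all listed) in √10 steps. After 5 days, nuclei were stained in one fix-and-stain step and counted on 4× images, and relative viability is the nuclei count of treated wells over that of vehicle wells, given as the median of duplicate plates.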

[1] = compound: CC(C)N(CCCNC(=O)Nc1ccc(C(C)(C)C)cc1)C[C@H]1O[C@@H](n2ccc3c(N)ncnc32)[C@H](O)[C@@H]1O + CC(=O)Nc1cccc(-n2c(=O)n(C3CC3)c(=O)c3c(Nc4ccc(I)cc4F)n(C)c(=O)c(C)c32)c1 [Trametinib] (partner 0.02 µM)
Outline: as §1

[2] = compound: CC(C)N(CCCNC(=O)Nc1ccc(C(C)(C)C)cc1)C[C@H]1O[C@@H](n2ccc3c(N)ncnc32)[C@H](O)[C@@H]1O + CS(=O)(=O)N1CCN(Cc2cc3nc(-c4cccc5[nH]ncc45)nc(N4CCOCC4)c3s2)CC1 [Pictilisib] (partner 1 µM)
Outline: as §1

Shikonin + Foretinib = compound: CC(C)=CC[C@@H](O)C1=CC(=O)c2c(O)ccc(O)c2C1=O [Shikonin] + COc1cc2c(Oc3ccc(NC(=O)C4(C(=O)Nc5ccc(F)cc5)CC4)cc3F)ccnc2cc1OCCCN1CCOCC1 [Foretinib] (partner 0.25 µM)
Outline: as §1

Cell Line | relative viability (Shikonin + Crizotinib; first compound 0.01 µM) | relative viability (Shikonin + Crizotinib; first compound 0.1 µM) | relative viability (Shikonin + Crizotinib; first compound 0.3162 µM) | relative viability (Shikonin + Crizotinib; first compound 1 µM) | relative viability ([1]; first compound 0.08 µM) | relative viability ([1]; first compound 0.253 µM) | relative viability ([1]; first compound 0.8 µM) | relative viability ([1]; first compound 2.53 µM) | relative viability ([1]; first compound 8 µM) | relative viability ([2]; first compound 0.08 µM) | relative viability ([2]; first compound 0.253 µM) | relative viability ([2]; first compound 0.8 µM) | relative viability ([2]; first compound 2.53 µM) | relative viability ([2]; first compound 8 µM) | relative viability (Shikonin + Foretinib; first compound 0.01 µM) | relative viability (Shikonin + Foretinib; first compound 0.1 µM) | relative viability (Shikonin + Foretinib; first compound 0.3162 µM) | relative viability (Shikonin + Foretinib; first compound 1 µM)
HARA | 1.18 | 1.19 | 1.11 | 1.21 | 0.736 | 0.412 | 0.54 | 0.511 | 0.508 | 0.506 | 0.479 | 0.344 | 0.311 | 0.31 | 0.936 | 1.13 | 0.865 | 0.883
NCI-H2126 | 1.08 | 1.21 | 1.1 | 1.04 | 0.551 | 0.572 | 0.555 | 0.577 | 0.58 | 0.499 | 0.476 | 0.415 | 0.529 | 0.48 | 1.06 | 1.2 | 1.18 | 1.43
NCI-H1437 | 1.02 | 1.17 | 0.883 | 0.993 | 0.472 | 0.521 | 0.496 | 0.428 | 0.45 | 0.362 | 0.358 | 0.526 | 0.428 | 0.441 | 1.37 | 1.26 | 1.26 | 1.27
ChaGo-K-1 | 1.07 | 1.19 | 1.11 | 1.21 | 0.91 | 0.875 | 0.876 | 0.876 | 0.843 | 0.771 | 0.726 | 0.658 | 0.632 | 0.912 | 0.97 | 1.06 | 1.05 | 0.943
NCI-H727 | 1.02 | 0.991 | 0.727 | 0.589 | 0.36 | 0.424 | 0.416 | 0.349 | 0.396 | 0.358 | 0.375 | 0.397 | 0.458 | 0.331 | 0.864 | 0.837 | 0.905 | 0.883
COR-L23 | 0.735 | 0.786 | 0.601 | 0.689 | 0.664 | 0.374 | 0.631 | 0.67 | 0.519 | 0.678 | 0.606 | 0.662 | 0.778 | 0.735 | 1.05 | 0.813 | 1.03 | 0.988
COR-L 105 | 1.06 | 0.721 | 0.763 | 0.692 | 0.492 | 0.402 | 0.496 | 0.465 | 0.537 | 0.413 | 0.301 | 0.408 | 0.369 | 0.404 | 1.44 | 1.31 | 1.34 | 1.33
LK-2 | 0.248 | 0.212 | 0.219 | 0.221 | 0.879 | 0.493 | 0.681 | 0.636 | 0.694 | 0.56 | 0.532 | 0.651 | 0.644 | 0.609 | 1.15 | 1.31 | 1.85 | 1.16
201T | 1.01 | 1.08 | 1.04 | 1.08 | 0.719 | 0.692 |  | 0.733 | 0.695 | 0.652 | 0.624 | 0.571 | 0.722 | 0.733 | 1.07 | 1.15 | 1.19 | 1.25
NCI-H650 | 0.818 |  | 0.643 | 0.804 | 0.859 | 1.06 | 0.875 | 1.03 | 0.994 | 0.807 | 0.907 | 0.887 | 0.867 | 0.824 | 1.01 | 0.999 | 1.08 | 1.01
H3255 | 0.945 | 1 | 0.958 | 0.915 | 0.492 | 0.593 | 0.483 | 0.587 | 0.49 | 0.463 | 0.414 | 0.442 | 0.557 | 0.461 | 0.851 | 0.876 | 0.869 | 0.856
NCI-H661 | 1.24 | 1.11 | 0.967 | 0.957 | 0.544 | 0.551 | 0.551 | 0.675 | 0.619 | 0.542 | 0.281 | 0.428 | 0.376 | 0.422 | 0.987 | 1.08 | 1.09 | 0.976
NCI-H2085 | 0.874 | 0.857 | 0.881 | 0.585 | 0.509 | 0.455 | 0.685 | 0.572 | 0.47 | 0.456 | 0.405 | 0.429 | 0.455 | 0.568 | 0.851 | 1.06 | 0.996 | 0.753
NCI-H2347 | 0.69 | 0.0168 | 0.795 | 0.715 | 0.248 | 0.281 | 0.251 | 0.284 | 0.282 | 0.45 | 0.546 | 0.661 | 0.582 | 0.842 | 1.15 | 1.27 | 0.835 | 0.953
NCI-H1944 | 1.12 | 1.18 | 1.24 | 1.22 | 0.362 | 0.39 | 0.372 | 0.439 | 0.448 | 0.314 | 0.292 | 0.285 | 0.384 | 0.366 | 0.94 | 0.954 | 0.989 | 0.94
NCI-H647 | 1.13 | 1.29 | 0.931 | 1.01 | 0.435 | 0.368 | 0.478 | 0.467 | 0.432 | 0.406 |  | 0.403 | 0.45 | 0.372 | 1.29 | 1.46 | 1.51 | 1.31
NCI-H596 | 1.1 | 0.884 | 0.96 | 0.985 | 0.858 | 0.759 | 0.842 | 0.753 | 0.765 | 0.388 | 0.412 | 0.173 | 0.355 | 0.414 | 0.868 | 0.824 | 0.777 | 0.941

Source: the supplement of paper PMC10307832
